Results on twelve compounds are retold here after patent publication US12415785B2, “Compound modulators of sting” (CTXT PTY LTD, priority 2019, dated 2025).

One assay deals with human STING (HAQ) (Homo sapiens, UniProt Q86WV6, G230A/H232R/R293Q). As to the kind of experiment: Differential scanning fluorimetry (DSF), huSTING (HAQ). It counts as binding. The conditions noted are these: 2 μM protein, compound 100 μM; Tm with ligand minus Tm of protein alone (1% DMSO); read-out: DSF huSTING (HAQ) ΔTm (° C.). Here is the method: (§1) Biophysical experiments were performed with three different recombinant human STING protein variants designated according to allelic nomenclature of Yi et al., (2013). […] These were ligated into a modified pET43a E. coli expression vector designed to encode N-terminal His tag followed by tobacco etch virus protease (TEV) cleavage site and a STING gene sequence. The resulting protein sequences for the three allelic variants are listed below: […] Cultures were then cooled to 16° C. and protein expression induced by the addition of isopropyl β-D-1-thiogalactopyranoside to a final concentration of 0.5 mM and the cultures shaken overnight for further 16 hours. Following expression, cell cultures were centrifuged at 5000×g for 20 min and cell pellet stored frozen at −70° C. Protein purification was initiated by thawing the cell pellet in Lysis buffer (25 mM Tris-HCl pH 8.0, 300 mM NaCl, 5 mM DTT, 2 mM MgCl2, 10 mM imidazole, 0.5 mg/ml lysozyme, benzonase endonuclease [EMD Millipore], 1 mM PMSF, complete protease inhibitor tablets EDTA-free [Roche]) using a ratio of 7 ml of buffer per 1 g of cells. Cells were further lysed by 3 passes through an ice cooled Avestin C5 cell crusher and then centrifuged at 48,000×g at 4° C. […] The IMAC column was then sequentially washed with IMAC Wash buffer 1 and IMAC Wash buffer 2 (25 mM Tris-HCl pH 8.0, 300 mM NaCl, 5 mM DTT, 20 mM Imidazole) and bound His-TEV-hSTING protein eluted with IMAC Elution buffer (25 mM Tris-HCl pH 8.0, 300 mM NaCl, 5 mM DTT, 250 mM Imidazole). […] Differential scanning fluorimetry (DSF) is a rapid screening method for identifying low-molecular-weight ligands that bind and, in doing so, stabilize (or sometimes destabilize) purified proteins (Niesen 2007). DSF monitors thermal unfolding of protein in the presence of a fluorescent dye and is typically performed using a real-time PCR instrument. The temperature at which a protein unfolds is measured by an increase in the fluorescence of a dye with affinity for hydrophobic parts of the protein that are gradually being exposed during unfolding. The fluorescence of the dye is quenched in aqueous environments, but when the dye associates with hydrophobic sites on unfolded protein, its fluorescence increases. The fluorescence intensity is plotted as a function of the temperature, generating a sigmoidal curve that can be described by a two-state transition. The inflection point of the transition curve (Tm) is calculated using simple equations such as that of Boltzmann. Thermal stability of STING protein (with and without bound ligand) was measured using previously described methodology (Seabrook & Newman, 2013), with samples tested in triplicate using 96-well PCR microplate (AB Gene, ABGAB-0600/W). […] Sealed plates were placed into Bio-Rad CFX96/C1000 thermocycler and FRET scanning mode (λ^excitation of 490 nm and reads at a λ^emission of 570 nm). Melting curves were recorded from 20° C. to 100° C. in 0.5° C. increments every 30 seconds with a read at each increment. Data were analysed using “Meltdown analysis” protocol described by Rosa (2015).
human STING (HAQ), sequence (Q86WV6 whole entry G230A/H232R/R293Q, looked up): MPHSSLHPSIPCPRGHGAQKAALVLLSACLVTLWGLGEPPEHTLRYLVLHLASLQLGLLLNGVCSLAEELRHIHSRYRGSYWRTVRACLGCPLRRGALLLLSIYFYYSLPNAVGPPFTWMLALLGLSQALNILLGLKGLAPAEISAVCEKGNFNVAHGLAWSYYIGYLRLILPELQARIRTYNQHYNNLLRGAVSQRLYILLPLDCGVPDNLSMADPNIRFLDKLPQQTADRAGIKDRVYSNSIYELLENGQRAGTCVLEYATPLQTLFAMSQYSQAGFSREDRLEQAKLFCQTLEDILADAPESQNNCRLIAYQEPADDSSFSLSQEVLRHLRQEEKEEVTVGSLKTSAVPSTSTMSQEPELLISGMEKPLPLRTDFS
In general terms: In DSF a fluorescence change marks the thermal transition of the protein.

A further assay deals with human STING (WT) (Homo sapiens (Human), UniProt Q86WV6, H232R). As to the kind of experiment: Differential scanning fluorimetry (DSF), huSTING (WT). Type of assay: binding. The note with it: 2 μM protein, compound 100 μM, Tm with ligand minus Tm of protein alone (1% DMSO); for ΔTm at 100 µM: read-out: DSF huSTING (WT) ΔTm (° C.). Here is the method: as §1
human STING (WT), sequence (Q86WV6 other isoform, or with tags, fused parts or gaps, stated change not applied): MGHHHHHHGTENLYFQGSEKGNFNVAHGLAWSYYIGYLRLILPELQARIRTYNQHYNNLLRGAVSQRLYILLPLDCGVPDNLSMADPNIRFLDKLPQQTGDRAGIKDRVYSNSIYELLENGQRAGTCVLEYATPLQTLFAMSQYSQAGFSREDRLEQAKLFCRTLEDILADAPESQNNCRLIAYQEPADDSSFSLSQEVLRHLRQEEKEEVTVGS
For assay [1], the target named is human HAQ isoform of STING (THP-1 STING Lucia ISG cells) (Homo sapiens (Human), UniProt Q86WV6, G230A/H232R/R293Q/R71H). Kind of assay: THP-1 STING Lucia ISG reporter cell line assay. Type of assay: cell-based. The note with it: 24 h incubation, QUANTI-Luc luminescence. Here is the method: (§2) THP-1 STING Lucia ISG cells (InvivoGen #thpI-isg) were cultured in RPMI-1640 containing 2 mM L-glutamine, 25 mM HEPES, 100 μg/mL Normocin (InvivoGen) and 10% heat-inactivated FBS. Cells were seeded at a density of 7×10^5 cells/mL, maintained at 37° C./5% CO2, and passaged every 3-4 days. Selection pressure was maintained by the addition of 100 μg/mL Zeocin every second passage.
human HAQ isoform of STING (THP-1 STING Lucia ISG cells), sequence (Q86WV6 whole entry R71H/G230A/H232R/R293Q, canonical isoform): as the sequence (Q86WV6 whole entry G230A/H232R/R293Q, looked up) above, with R71H counted along it
(§3) Assay conditions: cells were harvested and resuspended at a concentration of 5×10^5 cells/mL in fresh growth media. Of this cell preparation 20 μL per well was dispensed into 384 well cell culture plates (Greiner, #781098X) and incubated at 37° C./5% CO2 for 2 hours. Concentration Response Curves (commonly 11 doses) were prepared by 2.5 fold serial dilution starting from 10 mM compound stock solution in DMSO. Compound dilutions were transferred into the cell culture plates using a pintool (0.1 μL transfer), control wells were matched for DMSO. Positive control wells received ML RR—S2 CDA (Med Chem Express HY12885B) in 5 μL of media to a final concentration of 40 μM. All other wells received additional 5 μL of media only to equalise volume. The plates were incubated for 24 h at 37° C./5% CO2.
(§4) For the detection step, QUANTI-Luc (InvivoGen #rep-qlc1) was prepared according to manufacturer's instruction and 10 μL were added per well to the culture plates. Plates were shaken for ten seconds on an orbital shaker and left in the dark at room temperature for two minutes, before luminescence was read on a Perkin Elmer Envision plate reader.
(§5) Data analysis: Luminescence raw data was normalised % activity relative to the signal of the positive control wells and negative control wells which were not treated with compound. The following formula was used to calculate normalised % activity from raw signals: % activity=(sample−negative)/(positive−negative)
(§6) The THP-1 STING Lucia ISG cell EC50 provides an assessment of activity at the human HAQ isoform of STING. For assessing compound activity against the WT human STING isoform, an equivalent method was conducted where the cells used were THP-1-Dual KI-hSTING-R232 (InvivoGen #thpd-r232).

Assay [2] concerns the target WT human STING isoform (THP-1-Dual KI-hSTING-R232 cells) (Homo sapiens (Human), UniProt Q86WV6, H232R). Kind of assay: THP-1-Dual KI-hSTING-R232 reporter cell line assay. Type of assay: cell-based. The note with it: 24 h incubation, QUANTI-Luc luminescence. The method, then: as §2, §3, §4, §5, §6

WT human STING isoform (THP-1-Dual KI-hSTING-R232 cells), sequence (Q86WV6 whole entry H232R, canonical isoform): as the sequence (Q86WV6 whole entry G230A/H232R/R293Q, looked up) above, with A230G, Q293R counted along it

Broadly, the ΔTm is the change in melting temperature against a reference sample. As a reminder, the EC50 is the concentration at which the effect is half-maximal. As for `COc1c(C(N)=O)ccc2c1nc(-c1ccccc1C(=O)O)n2CCn1c(-c2ccccc2C(=O)O)nc2c(OC)c(C(N)=O)ccc21` [Example 4, 2,2′-(Ethane-1,2-diylbis(5-carbamoyl-4-methoxy-1H-benzo[d]imidazole-1,2-diyl))dibenzoic acid], the ΔTm at 100 µM at human STING (HAQ) amounted to 7.23 °C; at human STING (WT), 3.28 °C. For the same compound, the EC50 in assay [1] came out at 15.9 µM; in assay [2], 32.5 µM.

`COc1c(C(N)=O)ccc2c1nc(-c1ccc(C(F)(F)F)cc1C(=O)O)n2CCn1c(-c2ccc(C(F)(F)F)cc2C(=O)O)nc2c(OC)c(C(N)=O)ccc21` [Example 38, 6,6′-(Ethane-1,2-diylbis(5-carbamoyl-4-methoxy-1H-benzo[d]imidazole-1,2-diyl))bis(3-(trifluoromethyl)benzoic acid)]: the values for the ΔTm at 100 µM at human STING (HAQ) and at human STING (WT) were 3.68 °C and 0.38 °C, respectively. In addition, the EC50 in assay [1] and in assay [2] was over 40 µM each time.

`COc1c(C(N)=O)ccc2c1nc(-c1ccc(Cl)cc1-c1noc(=O)[nH]1)n2CCn1c(-c2ccc(Cl)cc2-c2noc(=O)[nH]2)nc2c(OC)c(C(N)=O)ccc21` [Example 32, 1,1′-(Ethane-1,2-diyl)bis(2-(4-chloro-2-(5-oxo-4,5-dihydro-1,2,4-oxadiazol-3-yl)phenyl)-4-methoxy-1H-benzo[d]imidazole-5-carboxamide)]: the ΔTm at 100 µM on human STING (HAQ) is 3.99 °C; at human STING (WT), 0.51 °C. The EC50 in assay [1] is over 40 µM; in assay [2], 29.7 µM.

As to `COc1c(C(N)=O)ccc2c1nc(-c1ccc(Cl)cc1-c1nn[nH]n1)n2CCn1c(-c2ccc(Cl)cc2-c2nn[nH]n2)nc2c(OC)c(C(N)=O)ccc21` [Example 9, 1,1′-(Ethane-1,2-diyl)bis(2-(4-chloro-2-(2H-tetrazol-5-yl)phenyl)-4-methoxy-1H-benzo[d]imidazole-5-carboxamide)], the results for the ΔTm at 100 µM at human STING (HAQ) and at human STING (WT) were 11.3 °C and 5.06 °C, respectively. The half-maximal effective concentration (EC50) turned out to be 0.777 µM in assay [1] and 0.715 µM in assay [2].

Consider `COc1c(C(N)=O)ccc2c1nc(-c1cc(Cl)ccc1-c1nn[nH]n1)n2CCn1c(-c2cc(Cl)ccc2-c2nn[nH]n2)nc2c(OC)c(C(N)=O)ccc21` [Example 42, 1,1′-(Ethane-1,2-diyl)bis(2-(5-chloro-2-(2H-tetrazol-5-yl)phenyl)-4-methoxy-1H-benzo[d]imidazole-5-carboxamide)], for which the ΔTm at 100 µM on human STING (HAQ) is 6.3 °C; on human STING (WT), 2.04 °C. For the same compound, the values for the EC50 in assay [1] and in assay [2] were 3.21 µM and 4.39 µM, respectively.

Turning to `COc1c(C(N)=O)ccc2c1nc(-c1c(I)cccc1C(=O)O)n2CCn1c(-c2c(I)cccc2C(=O)O)nc2c(OC)c(C(N)=O)ccc21` (single isomer, unassigned) [Example 19.1, 2,2′-(Ethane-1,2-diylbis(5-carbamoyl-4-methoxy-1H-benzo[d]imidazole-1,2-diyl))bis(3-iodobenzoic acid)], the ΔTm at 100 µM on human STING (HAQ) stood at 31.7 °C. Besides, on human STING (WT), the “DSF huSTING (WT) ΔTm (° C.)” value worked out at 19.29 °C. Also, the EC50 in assay [1] was 0.297 µM; in assay [2] it was 0.232 µM.

As to `NC(=O)c1ccc2c(c1)nc(-c1ccccc1C(=O)O)n2CCn1c(-c2ccccc2C(=O)O)nc2cc(C(N)=O)ccc21` [Example 2, 2,2′-(Ethane-1,2-diylbis(5-carbamoyl-1H-benzo[d]imidazole-1,2-diyl))dibenzoic acid], the ΔTm at 100 µM was -3.48 °C on human STING (HAQ) and -6.94 °C at human STING (WT). The EC50 in assay [1] and in assay [2] was over 40 µM throughout.

As for `COc1ccc(-c2nc3c(OC)c(C(N)=O)ccc3n2CCn2c(-c3ccc(OC)cc3C(=O)O)nc3c(OC)c(C(N)=O)ccc32)c(C(=O)O)c1` [Example 41, 6,6′-(Ethane-1,2-diylbis(5-carbamoyl-4-methoxy-1H-benzo[d]imidazole-1,2-diyl))bis(3-methoxybenzoic acid)], the results for the ΔTm at 100 µM on human STING (HAQ) and at human STING (WT) were 4.52 °C and 1.09 °C, respectively. The EC50 in assay [1] and in assay [2] was over 40 µM throughout.

With `COc1c(C(N)=O)ccc2c1nc(-c1ccc(Cl)cc1-c1n[nH]c(=O)o1)n2CCn1c(-c2ccc(Cl)cc2-c2n[nH]c(=O)o2)nc2c(OC)c(C(N)=O)ccc21` [Example 17, 1,1′-(Ethane-1,2-diyl)bis(2-(4-chloro-2-(5-oxo-4,5-dihydro-1,3,4-oxadiazol-2-yl)phenyl)-4-methoxy-1H-benzo[d]imidazole-5-carboxamide)], the ΔTm at 100 µM on human STING (HAQ) was determined as 11.9 °C; on human STING (WT), 3.05 °C. Moreover, the EC50 in assay [1] is 0.29 µM; in assay [2], 0.36 µM.

In the case of `COc1c(C(N)=O)ccc2c1nc(-c1ccc(C)cc1C(=O)O)n2CCn1c(-c2ccc(C)cc2C(=O)O)nc2c(OC)c(C(N)=O)ccc21` [Example 25, 6,6′-(Ethane-1,2-diylbis(5-carbamoyl-4-methoxy-1H-benzo[d]imidazole-1,2-diyl))bis(3-methylbenzoic acid)], the shift in melting temperature (ΔTm) at 100 µM on human STING (HAQ) is -15.6 °C; on human STING (WT) it was -18.4 °C. Besides, the values for the EC50 in assay [1] and in assay [2] were 2.96 µM and 3.2 µM, respectively.

`COc1c(C(N)=O)ccc2c1nc(-c1cnccc1C(=O)O)n2CCn1c(-c2cnccc2C(=O)O)nc2c(OC)c(C(N)=O)ccc21` [Example 30, 3,3′-(Ethane-1,2-diylbis(5-carbamoyl-4-methoxy-1H-benzo[d]imidazole-1,2-diyl))diisonicotinic acid]: the ΔTm at 100 µM on human STING (HAQ) came to 2.14 °C; at human STING (WT), 0.29 °C. Moreover, the EC50 in assay [1] turned out to be 39.1 µM; in assay [2], 28.9 µM.

Take `NC(=O)c1ccc2c(c1)nc(-c1c(Br)cccc1C(=O)O)n2CCn1c(-c2c(Br)cccc2C(=O)O)nc2cc(C(N)=O)ccc21` (single isomer, unassigned) [Example 29.1, 2,2′-(Ethane-1,2-diylbis(5-carbamoyl-1H-benzo[d]imidazole-1,2-diyl))bis(3-bromobenzoic acid)]: the “DSF huSTING (WT) ΔTm (° C.)” value at human STING (WT) is −0.07 °C. Besides, the EC50 in assay [1] was determined as 18.4 µM; in assay [2], 9.85 µM.
